{
  "source": "ChEMBL document CHEMBL3639170",
  "about": "“Carboxy isatin hydrazones and their esters as Shp2 inhibitors” (2014)",
  "molecular_target": "T1, Tyrosine-protein phosphatase non-receptor type 11 (Homo sapiens, UniProt Q06124)",
  "T1 sequence (Q06124 whole entry)": "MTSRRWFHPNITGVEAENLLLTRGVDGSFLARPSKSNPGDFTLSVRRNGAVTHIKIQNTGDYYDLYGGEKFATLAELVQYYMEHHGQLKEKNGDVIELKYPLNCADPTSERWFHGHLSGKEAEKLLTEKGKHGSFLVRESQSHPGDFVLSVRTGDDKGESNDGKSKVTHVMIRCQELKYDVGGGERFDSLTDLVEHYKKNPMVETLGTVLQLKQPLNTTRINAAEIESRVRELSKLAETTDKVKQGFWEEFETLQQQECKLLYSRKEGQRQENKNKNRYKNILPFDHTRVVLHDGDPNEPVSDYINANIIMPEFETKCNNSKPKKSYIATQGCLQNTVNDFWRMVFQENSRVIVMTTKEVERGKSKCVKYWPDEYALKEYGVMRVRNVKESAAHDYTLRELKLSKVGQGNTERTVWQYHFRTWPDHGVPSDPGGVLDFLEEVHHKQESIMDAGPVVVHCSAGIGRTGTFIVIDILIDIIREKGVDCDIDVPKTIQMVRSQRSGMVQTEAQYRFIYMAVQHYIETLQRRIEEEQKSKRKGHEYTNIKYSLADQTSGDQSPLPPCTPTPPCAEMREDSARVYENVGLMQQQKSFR",
  "experiment": "Inhibition Assay: In vitro Shp2 PTP activity inhibition assay for determination of IC50 was performed with a recombinant GST-Shp2 PTP domain protein using 6,8-difluoro-4-methylumbelliferyl phosphate (DiFMUP, Invitrogen) as the substrate similar to that described previously (Chen, et al., Discovery of a novel shp2 protein tyrosine phosphatase inhibitor. Mol Pharmacol 2006; 70:562-70).",
  "data": [
    {"smiles": "O=C(O)C(O)CC(=O)N1CCc2cc(S(=O)(=O)N3CCN(c4cccc(Cl)c4)CC3)ccc21", "note": "(stereo unspecified)", "values": [
      {"measurement": "IC50", "value": 8.2, "unit": "µM"}
    ]}
  ]
}
